The target of the experiment is human PDHK2 (hPDHK2) (Homo sapiens (Human), UniProt Q15119). The experiment can be described thus: Inhibitory action of PDHK activity in vitro (kinase reaction, residual PDH activity measured). It counts as biochemical. The protocol: In the case of human PDHK2 (hPDHK2, Genbank Accession No. NM_002611), modified hPDHK2 cDNA wherein FLAG-Tag sequence is added to the N terminal by a polymerase linkage reaction was prepared based on hPDHK2 cDNA clone (pReceiver-M01/PDK2-GeneCopoeia), and cloned into a vector (pET17b-Novagen). The recombinant construct was transformed into Escherichia coli (DH5α-TOYOBO). The recombinant clones were identified, plasmid DNA was isolated and subjected to the DNA sequence analysis. One clone which had the expected nucleic acid sequence was selected for expression work.
During the assay, the hPDHK2 enzyme concentration was set to the minimal concentration at which PDH is inhibited the most.
0.05 U/mL PDH (porcine heart PDH complex, Sigma P7032) and 1.6 μg/mL hPDHK2 were mixed in a buffer (50 mmol/L 3-morpholinopropanesulfonic acid (pH 7.0), 20 mmol/L dipotassium hydrogen phosphate, 60 mmol/L potassium chloride, 2 mmol/L magnesium chloride, 0.4 mmol/L EDTA, and 0.2% Pluronic F-68, 2 mmol/L dithiothreitol), the mixture was incubated at 4° C. overnight to give PDH/hPDHK2 complex. The test compound was diluted with dimethyl sulfoxide (DMSO). PDH/hPDHK2 complex (20 μL), test compound (1.5 μL) and 3.53 μmol/L ATP (diluted with buffer, 8.5 μL) were added to a half area 96 well UV-transparent microplate (Corning 3679), and PDHK reaction was performed at room temperature for 45 min. Instead of the test compound, DMSO (1.5 μL) was added to a control well. DMSO (1.5 μL) was added instead of the test compound to a blank well for the measurement of the maximum rate of PDH reaction, and hPDHK2 was not added. Than, 10 μL of substrates (5 mmol/L sodium pyruvate, 5 mmol/L Coenzyme A, 12 mmol/L NAD, and 5 mmol/L thiamine pyrophosphate, diluted with buffer) was added. The mixture was incubated at room temperature for 90 min, and the residual PDH activity was measured. The absorbance at 340 nm before and after PDH reaction was measured on a microplate reader to detect NADH produced by the PDH reaction. The PDHK inhibitory rate (%) of the test compound was calculated from the formula [{(PDH activity of test compound—PDH activity of control)/PDH activity of blank—PDH activity of control)}×100]. The IC50 value was calculated from the concentrations of the test compound at two points enclosing 50% inhibition of the PDHK activity.

The mark [1] stands for this setting: PDHK inhibitory activity, class symbol of IC50.
[2] abbreviates: read-out: PDHK inhibitory activity IC50.
The mark [3] stands for this setting: PDHK inhibitory activity (class symbol).

For 45 compounds, IC50 results are on record in patent US8871934B2, “Fluorene compound and pharmaceutical use thereof” (Japan Tobacco Inc., priority 2008, dated 2014).

pIC50: −log10 of the molar value. Read-outs that look alike come from different tables or passages of the source. A value given as a limit tells only on which side of the number the result lay.

As to `O=C(O)CCCOc1ccc2c(c1)C(O)(C(F)(F)F)c1ccccc1-2` (stereo not drawn) [compound 258], the pIC50 by setting is: under setting [1], less than 6.00; under setting [2], 5.58.

On to `Oc1ccc(-c2ccc3c(c2)C(O)(C(F)(F)F)c2ccccc2-3)cc1` (stereo not drawn) [compound 205], for which the pIC50 is, setting by setting: under setting [1], 6.00 to 7.00; under setting [2], 6.15.

In the case of `Cc1cccc2c1-c1ccccc1C2(O)C(F)(F)F` (stereo not drawn) [compound 2], the pIC50 was less than 6.00 under setting [1] and 5.64 under setting [2].

As for `O=C(O)CCCOc1cc(Cl)c2c(c1)C(O)(C(F)(F)F)c1ccccc1-2` (single isomer, unassigned) [compound 479], the pIC50 was less than 6.00 under setting [1] and less than 5.00 under setting [2].

On to `O=C(c1ccc2c(c1)C(O)(C(F)(F)F)c1ccccc1-2)N1CC(C(=O)N2CCCC2)C1` (stereo not drawn) [compound 201], for which the pIC50 is, setting by setting: under setting [1], 6.00 to 7.00; under setting [2], 6.79.

For `CN(C)C(=O)CCCOc1cc(-c2cnn(C)c2)c2c(c1)C(O)(C(F)(F)F)c1ccccc1-2` (stereo not drawn) [compound 427], the pIC50 is, setting by setting: under setting [1], greater than 7.00; under setting [2], 7.70.

Turning to `CCn1cc(-c2cc(C(C)=O)c3c(c2)C(O)(C(F)(F)F)c2ccccc2-3)cn1` (stereo not drawn) [compound 587], the pIC50 under setting [1] is greater than 7.00 and the pIC50 under setting [2] is 7.68.

In the case of `NC(=O)Cn1cc(-c2cc(OCCC34CC5CC(CC(C5)C3)C4)cc3c2-c2ccccc2C3(O)C(F)(F)F)cn1` (stereo not drawn) [compound 508], the pIC50 was greater than 7.00 under setting [1] and 7.32 under setting [2].

Regarding `CNC(=O)C1CCN(C(=O)c2ccc3c(c2)C(O)(C(F)(F)F)c2ccccc2-3)C1` (stereo not drawn) [compound 227], the pIC50 was less than 6.00 under setting [1] and 5.98 under setting [2].

For `COC(=O)c1cc(C(=O)OC)c2c(c1)C(O)(C(F)(F)F)c1ccccc1-2` (stereo not drawn) [compound 50], the pIC50 reads like this: under setting [1], 6.00 to 7.00; under setting [2], 7.00.

Regarding `COC(=O)c1cc(-c2cncnc2)c2c(c1)C(O)(C(F)(F)F)c1ccccc1-2` (stereo not drawn) [compound 364], the pIC50 runs as follows: under setting [1], 6.00 to 7.00; under setting [2], 6.75.

As to `OCCCCOc1ccc2c(c1)C(O)(C(F)(F)F)c1ccccc1-2` (stereo not drawn) [compound 270], the pIC50 under setting [1] is 6.00 to 7.00 and the pIC50 under setting [2] is 6.27.

Regarding `OC1(C(F)(F)F)c2ccccc2-c2ccc(C3CC3)cc21` (stereo not drawn) [compound 244], the pIC50 reads like this: under setting [1], less than 6.00; under setting [2], 5.53.

With `OC1(C(F)(F)F)c2ccccc2-c2ccc(Cn3cccn3)cc21` (stereo not drawn) [compound 559], the pIC50 is less than 6.00 (class symbol of IC50, read-out: PDHK inhibitory activity) and less than 6.00 under setting [2].

As to `CC(=O)NCCCOc1ccc2c(c1)C(O)(C(F)(F)F)c1ccccc1-2` (stereo not drawn) [compound 340], the pIC50 is less than 6.00 under setting [1] and 5.80 under setting [2].

Turning to `CN1C(=O)CC[C@H]1COc1ccc2c(c1)C(O)(C(F)(F)F)c1ccccc1-2` (stereo partly drawn) [compound 448], the pIC50 was 6.00 to 7.00 under setting [1] and 6.42 under setting [2].

Take `OC1(C(F)(F)F)c2ccccc2-c2ccc(-c3ccccc3)cc21` (stereo not drawn) [compound 97]: the pIC50 reads like this: under setting [1], 6.00 to 7.00; under setting [2], 6.07.

For the compound `CCn1cc(-c2cc(C(N)=O)c3c(c2)C(O)(C(F)(F)F)c2ccccc2-3)cn1` (single isomer, unassigned; (-)) [compound 630, (−)-2-(1-ethyl-1H-pyrazol-4-yl)-9-hydroxy-9-trifluoromethyl-9H-fluorene-4-carboxylic acid amide], the pIC50 was greater than 7.00 under setting [3] and 7.70 under setting [2].

On to `OCCn1cc(-c2cc(-c3cnn(CCO)c3)c3c(c2)C(O)(C(F)(F)F)c2ccccc2-3)cn1` (stereo not drawn) [compound 580], for which the pIC50 runs as follows: under setting [1], greater than 7.00; under setting [2], 7.68.

Turning to `CN(CCCCO)C(=O)c1ccc2c(c1)C(O)(C(F)(F)F)c1ccccc1-2` (stereo not drawn) [compound 319], the pIC50 reads like this: under setting [1], less than 6.00; under setting [2], 5.51.

As to `CCn1cc(-c2cc(C(N)=O)c3c(c2)C(O)(C(F)(F)F)c2ccccc2-3)cn1` (stereo not drawn) [compound 530], the pIC50 under setting [1] was greater than 7.00 and the pIC50 under setting [2] is 7.37.

On to `CN(CCOc1cc(-c2cnn(C)c2)c2c(c1)C(O)(C(F)(F)F)c1ccccc1-2)C(=O)C(C)(C)O` (stereo not drawn) [compound 501], for which the pIC50 reads like this: under setting [1], greater than 7.00; under setting [2], 7.49.

As for `COC(=O)c1cc(Br)c2c(c1)C(O)(C(F)(F)F)c1ccccc1-2` (single isomer, unassigned) [compound 473], the pIC50 runs as follows: under setting [1], greater than 7.00; under setting [2], 7.05.

Consider `Cc1cc(-c2cnn(CCCc3nn[nH]n3)c2)c2c(c1)C(O)(C(F)(F)F)c1ccccc1-2` (single isomer, unassigned) [compound 691], for which the pIC50 is, setting by setting: under setting [3], greater than 7.00; under setting [2], 7.52.

Consider `O=C(O)c1cccc2c1-c1ccccc1C2(O)C(F)(F)F` (stereo not drawn) [compound 32], for which the pIC50 reads like this: under setting [1], less than 6.00; under setting [2], less than 4.00.

Consider `CC(=O)N(C)CCCOc1ccc2c(c1)C(O)(C(F)(F)F)c1ccccc1-2` (stereo not drawn) [compound 334], for which the pIC50 was 6.00 to 7.00 under setting [1] and 6.17 under setting [2].

In the case of `CC(=O)Nc1ccc2c(c1)C(O)(C(F)(F)F)c1ccccc1-2` (stereo not drawn) [compound 22], the pIC50 is less than 6.00 under setting [1] and 4.78 under setting [2].

`O=C(COc1ccc2c(c1)C(O)(C(F)(F)F)c1ccccc1-2)N1CCCC1` (stereo not drawn) [compound 360]: the pIC50 under setting [1] is 6.00 to 7.00 and the pIC50 under setting [2] is 6.26.

Consider `OC1(C(F)(F)F)c2ccccc2-c2ccc(-c3ccccc3Cl)cc21` (stereo not drawn) [compound 150], for which the pIC50 is less than 6.00 under setting [1] and 5.17 under setting [2].

On to `O=C(O)CCOc1ccc2c(c1)C(O)(C(F)(F)F)c1ccccc1-2` (stereo not drawn) [compound 291], for which the pIC50 is less than 6.00 under setting [1] and 5.23 under setting [2].

Turning to `CN(CCO)C(=O)c1ccc2c(c1)C(O)(C(F)(F)F)c1ccccc1-2` (stereo not drawn) [compound 297], the pIC50 is less than 6.00 under setting [1] and 5.52 under setting [2].

Consider `CC(C)(O)Cn1cc(-c2cc(F)cc3c2-c2ccccc2C3(O)C(F)(F)F)cn1` (single isomer, unassigned) [compound 674], for which the pIC50 reads like this: under setting [3], greater than 7.00; under setting [2], 7.52.

For `CN1C(=O)CCC1COc1ccc2c(c1)C(O)(C(F)(F)F)c1ccccc1-2` (stereo not drawn) [compound 420], the pIC50 under setting [1] is 6.00 to 7.00 and the pIC50 under setting [2] is 6.65.

Consider `CC(C)(Cn1cc(-c2cc(F)cc3c2-c2ccccc2C3(O)C(F)(F)F)cn1)C(=O)O` (single isomer, unassigned) [compound 607], for which the pIC50 under setting [3] was greater than 7.00 and the pIC50 under setting [2] was 7.35.

For `Cn1cc(-c2cc(C(=O)N3CC(OCCO)C3)cc3c2-c2ccccc2C3(O)C(F)(F)F)cn1` (stereo not drawn) [compound 375], the pIC50 under setting [1] was greater than 7.00 and the pIC50 under setting [2] is 7.30.

For `NC(=O)CCCOc1ccc2c(c1)C(O)(C(F)(F)F)c1ccccc1-2` (stereo not drawn) [compound 280], the pIC50 is less than 6.00 under setting [1] and 5.82 under setting [2].

As to `OC1(C(F)(F)F)c2ccccc2-c2c(Cl)cc(-c3ccncc3)cc21` (stereo not drawn) [compound 185], the pIC50 is greater than 7.00 under setting [1] and 7.28 under setting [2].

Take `CC(C)(C)Cn1cc(-c2cc(C(N)=O)c3c(c2)C(O)(C(F)(F)F)c2ccccc2-3)cn1` (single isomer, unassigned) [compound 659, 2-[1-(2,2-dimethyl-propyl)-1H-pyrazol-4-yl]-9-hydroxy-9-trifluoromethyl-9H-fluorene-4-carboxylic acid amide]: the pIC50 is, setting by setting: under setting [3], greater than 7.00; under setting [2], 7.80.

As for `CCOC(=O)CCCCOc1ccc2c(c1)C(O)(C(F)(F)F)c1ccccc1-2` (stereo not drawn) [compound 283], the pIC50 is, setting by setting: under setting [1], 6.00 to 7.00; under setting [2], 6.24.

For `CC(=O)N(C)CCn1cc(-c2cccc3c2-c2ccccc2C3(O)C(F)(F)F)cn1` (stereo not drawn) [compound 535], the pIC50 by setting is: under setting [1], 6.00 to 7.00; under setting [2], 6.71.

Consider `CCCc1cc(-c2cnn(C(CO)CO)c2)c2c(c1)C(O)(C(F)(F)F)c1ccccc1-2` (stereo not drawn) [compound 652], for which the pIC50 is greater than 7.00 under setting [3] and 7.44 under setting [2].

Take `Cc1nnc(-c2cccc3c2-c2ccccc2C3(O)C(F)(F)F)o1` (stereo not drawn) [compound 267]: the pIC50 was less than 6.00 under setting [1] and 5.92 under setting [2].

For the compound `NC(=O)CCCOc1cc(Cl)c2c(c1)C(O)(C(F)(F)F)c1ccccc1-2` (stereo not drawn) [compound 410], the pIC50 by setting is: under setting [1], 6.00 to 7.00; under setting [2], 6.81.

`OC1(C(F)(F)F)c2ccccc2-c2ccc(Cc3ccccc3)cc21` (stereo not drawn) [compound 317]: the pIC50 by setting is: under setting [1], less than 6.00; under setting [2], 5.64.

On to `CC(=O)N(C)C[C@@H](O)COc1cc(-c2cnn(C)c2)c2c(c1)C(O)(C(F)(F)F)c1ccccc1-2` (stereo partly drawn) [compound 499], for which the pIC50 was greater than 7.00 under setting [1] and 7.41 under setting [2].
